# Experimental data: ChEMBL document CHEMBL1121483, “Thrombin inhibitors. 1. Ester derivatives of N alpha-(arylsulfonyl)-L-arginine” (J Med Chem, 1980)
# pIC50: −log10 of the molar value.
# Target: T1, Prothrombin (Bos taurus, UniProt P00735)
# Experiment: Concentration at which the clotting time was prolonged by twice the control was determined using topical bovine thrombin
# Assay type: functional
# Settings: read-out: I50
row,Compound,pIC50
1,CCC(C)OC(=O)C(CCCNC(=N)N)NS(=O)(=O)c1cccc2c(N(C)C)cccc12 (configuration not stated),2.70
2,CCC(COC(=O)C(CCCN=C(N)N)NS(=O)(=O)c1cccc2c(N(C)C)cccc12)[N+](=O)[O-] (configuration not stated),3.70
3,CN(C)c1cccc2c(S(=O)(=O)NC(CCCN=C(N)N)C(=O)OC3CCCCC3)cccc12 (configuration not stated),4.22
4,COC(=O)C(CCCNC(=N)N)NS(=O)(=O)c1ccc(OC)cc1 (configuration not stated),4.00
5,COC(=O)C(CCCN=C(N)N)NS(=O)(=O)c1cccc2c(N(C)C)cccc12 (configuration not stated),4.70
6,COCCOC(=O)C(CCCNC(=N)N)NS(=O)(=O)c1cccc2c(N(C)C)cccc12 (configuration not stated),5.30
7,COC(=O)C(CCCNC(=N)N)NS(=O)(=O)c1ccc(Cl)cc1 (configuration not stated),2.57
8,CCCCCOC(=O)C(CCCN=C(N)N)NS(=O)(=O)c1cccc2c(N(C)C)cccc12 (configuration not stated),4.31
9,COC(=O)C(CCCN=C(N)N)NS(=O)(=O)c1ccc([N+](=O)[O-])cc1 (configuration not stated),2.62
10,COC(=O)C(CCCN=C(N)N)NS(=O)(=O)c1ccc2ccccc2c1 (configuration not stated),3.89
11,COC(=O)C(CCCN=C(N)N)NS(=O)(=O)c1ccc(F)cc1 (configuration not stated),2.28
12,CN(C)c1cccc2c(S(=O)(=O)NC(CCCNC(=N)N)C(=O)OCC3CCCO3)cccc12 (configuration not stated),4.70
13,CC(C)COC(=O)C(CCCN=C(N)N)NS(=O)(=O)c1cccc2c(N(C)C)cccc12 (configuration not stated),5.00
14,COC(=O)C(CCCN=C(N)N)NS(=O)(=O)c1cccc2cc(N(C)C)ccc12 (configuration not stated),4.00
15,C#CCCOC(=O)C(CCCN=C(N)N)NS(=O)(=O)c1cccc2c(N(C)C)cccc12 (configuration not stated),5.40
16,CCCOC(=O)C(CCCN=C(N)N)NS(=O)(=O)c1cccc2c(N(C)C)cccc12 (configuration not stated),5.70
17,CC(C)OC(=O)C(CCCNC(=N)N)NS(=O)(=O)c1cccc2c(N(C)C)cccc12 (configuration not stated),4.52
18,CN(C)c1cccc2c(S(=O)(=O)NC(CCCN=C(N)N)C(=O)O)cccc12 (configuration not stated),< 3.00
19,COC(=O)C(CCCN=C(N)N)NS(=O)(=O)c1cccc([N+](=O)[O-])c1 (configuration not stated),2.54
20,C/C=C/COC(=O)C(CCCNC(=N)N)NS(=O)(=O)c1cccc2c(N(C)C)cccc12 (configuration not stated),5.70
21,CN(C)c1cccc2c(S(=O)(=O)NC(CCCNC(=N)N)C(=O)OCc3ccccc3)cccc12 (configuration not stated),5.70
22,COC(=O)C(CCCN=C(N)N)NS(=O)(=O)c1ccc(N)cc1 (configuration not stated),2.32
23,COC(=O)C(CCCNC(=N)N)NS(=O)(=O)c1cccc2ccccc12 (configuration not stated),3.28
24,CCOC(=O)C(CCCNC(=N)N)NS(=O)(=O)c1cccc2c(N(C)C)cccc12 (configuration not stated),5.10

# Target: Prothrombin (Bos taurus) (UniProt P00735)
# Experiment: Rate of hydrolysis by thrombin relative to TAME
# Settings: not given
row,Compound,Relative hydrolysis
1,CN(C)c1cccc2c(S(=O)(=O)NC(CCCN=C(N)N)C(=O)OCCCCl)cccc12 (configuration not stated),0.084

# Target: T1, Prothrombin
# Experiment: Concentration at which the clotting time was prolonged by twice the control was determined using commercial topical bovine thrombin.
# Assay type: functional
# Settings: not given
row,Compound,pIC50
1,COC(=O)C(CCCN=C(N)N)NS(=O)(=O)c1cccc2c(N(C)C)cccc12 (configuration not stated),2.70

# Target: Serine protease 1 (Homo sapiens) (UniProt P07477)
# Experiment: Rate of hydrolysis by trypsin relative to TAME
# Settings: not given
# Sequence of Serine protease 1 (Homo sapiens) (P07477 whole entry): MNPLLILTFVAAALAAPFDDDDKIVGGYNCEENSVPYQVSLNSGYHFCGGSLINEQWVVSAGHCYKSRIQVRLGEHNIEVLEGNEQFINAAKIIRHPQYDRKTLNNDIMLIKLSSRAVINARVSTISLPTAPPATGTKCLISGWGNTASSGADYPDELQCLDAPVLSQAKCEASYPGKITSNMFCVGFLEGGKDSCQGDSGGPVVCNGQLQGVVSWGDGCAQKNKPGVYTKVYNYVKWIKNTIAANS
row,Compound,Relative hydrolysis
1,CN(C)c1cccc2c(S(=O)(=O)NC(CCCN=C(N)N)C(=O)OCCCCl)cccc12 (configuration not stated),0.5
